Measured values: PMC9313812, “The Pseudo‐Natural Product Rhonin Targets RHOGDI” (Angewandte Chemie (International Ed. in English), 2022)

Legend:
PDEδ = molecular target: T1, PDEδ (Homo sapiens, UniProt O43924); assay: Competition-based fluorescence polarization with fluorescein-labelled atorvastatin; assay type: binding; conditions: selectivity test
T1 construct: GST (N); made in house; host or cells: E. coli Rosetta 2
Protocol: RHOGDI1 displaced liposome -bound RAC1 from the surface of L1 chip with a koff of 0.016 […]
bound RAC1. Calculated rate constants by mono-exponential fitting of RU decays were 0.02 and 0.032 s-1 for RHOGDI1-mediated RAC1 displacement from the liposomes in the presence of 7a and 7d, respectively. (d) Competition-based fluorescence polarization experiments were performed by titration of 7a against 10 nM fluorescein-labelled atorvastatin and GST-PDEδ.
(e) Fluorescence polarization experiment using 10 nM probe 10 and titration of PDEδ.
(1 picture or pasted object on this page, not shown here)
Label-free quantification (LFQ) intensities were logarithmized (log2) and proteins, which were not three times quantified in at least one of the groups, were filtered off. […]
Fluorescence polarization
The binding of probe 10 to RHOGDI1-3 was confirmed by fluorescence polarization experiments. […] The change in fluorescence polarization was monitored at an excitation / emission wavelengths of 535 nm and 593 nm, respectively. […]
To determine the effect of 7a on the binding of RHOGDI1 to non-prenylated RAC1-GDP, fluorescence polarization measurements were performed by titrating 1 µM TAMRA-GDP-bound RAC1 with increasing concentrations of RHOGDI1 in the presence and absence of 50 µM 7a in buffer containing 30 mM Tris-HCl, pH 7.5, 150 mM NaCl, 5 mM MgCl2, 1% DMSO. […]

NIH/3T3 cells = assay: Wound healing assay (cell migration); assay type: cell-based; conditions: 10 µM Rhonin; 2 µg/ml RHO inhibitor I; purmorphamine 2 µM
Protocol: Supplementary Figure S13. Influence of 10 µM Rhonin on cell migration in NIH/3T3 cells upon stimulation with purmorphamine (Purm, 2 µM). The RHO inhibitor I was used as a control. Cell migration was monitored by means of a wound healing assay. Data ar e representative of three independent experiments (n=3, N = 3), mean values ± SD. […]
40,000 x g for 30 min at 4°C. Supernatants were collected as cytoplasmic fraction and pellets were resuspended into a homogenization buffer (0.25 M sucrose, 20 mM Tris/HCl pH 7.4, 25 mM KCl, 5 mM MgCl2) and further centrifuged (2 h at 100,000 x g) using an iodixanol (OptiPrep, Axis Shield) gradient solution. Obtained fractions were used for immunoblotting.
NIH/3T3 cells were seeded in a 96 plate (10,000 cell per well/ plate name: Essen Bioscience NO 4379). NIH/3T3 cells were grown till 80% confluence and then serum starved (0 % FCS) for 24 h. […] Cell migration was monitored using IncuCyte ZOOM for a period of 48 h. The images were analyzed by the Incucyte Scratch Wound Analysis Software. […]
GTPase primary antibody (RAC1, CDC42 or RHOA) was added and the tubes and were incubated for 45 min at room temperature. […] Absorption was detected at 490 nm using a plate reader (Tecan Sparks).
Aqueous solubility of compounds was assessed by determination of the kinetic solubility of a test compound in aqueous buffer compared to a solution in organic solvent (acetonitrile). […]

| SMILES | Competition with fluorescein-labelled atorvastatin for binding to PDEδ (in words) (PDEδ) | Wound closure / cell migration (in words) (NIH/3T3 cells) |
| --- | --- | --- |
| COC(=O)C1(C(CC(=O)c2ccccc2)c2ccccc2)N=C(c2ccc(Br)cc2)C2C(=O)N(C)C(=O)C21 (centres unmarked) [7a] | does not compete | – |
| COC(=O)C1(C(CC(=O)c2cccnc2)c2ccccc2)N=C(c2ccc(Br)cc2)C2C(=O)N(C)C(=O)C21 (centres unmarked) [7l] | – | moderately inhibited wound closure |
